Columns and labels:
LNCaP [1] = experiment: Antiproliferative activity against human LNCAP cells; assay type: functional, cell-based
[2] = target: T1, Bromodomain-containing protein 4 (Homo sapiens, UniProt O60885)
Description: Binding affinity to His6-tagged human BRD4 bromodomain-1 (N44 to E168 residues) expressed in Escherichia coli BL21(DE3) assessed as change in melting temperature at 200 uM by SYPRO orange dye based fluorescence assay

[3] = target: T1, Bromodomain-containing protein 4; experiment: Inhibition of His6-tagged human BRD4 bromodomain-1 (N44 to E168 residues) expressed in Escherichia coli BL21(DE3) using biotinylated-H4KAc4 as substrate by AlphaScreen assay
VCaP = experiment: Antiproliferative activity against human VCaP cells treated at 12 hrs post cell seeding measured at 72 to 144 hrs post cell seeding by Cell-Titer Glo assay; assay type: functional, cell-based
LNCaP C4-2B = experiment: Antiproliferative activity against human C4-2B cells treated at 12 hrs post cell seeding measured at 72 to 144 hrs post cell seeding by Cell-Titer Glo assay; assay type: functional, cell-based
CWR22R = experiment: Antiproliferative activity against human 22Rv1 cells treated at 12 hrs post cell seeding measured at 72 to 144 hrs post cell seeding by Cell-Titer Glo assay; assay type: functional, cell-based
LNCaP [4] = experiment: Antiproliferative activity against human LNCAP cells treated at 12 hrs post cell seeding measured at 72 to 144 hrs post cell seeding by Cell-Titer Glo assay; assay type: functional, cell-based

Row | Compound | ΔTm [2] | IC50 [3] | further results
1 | CCNC(=O)C[C@@H]1N=C(c2ccc(Cl)cc2)c2cc(OC)ccc2-n2c(C)nnc21 [MOLIBRESIB] |  |  | IC50 (LNCaP [1]): 0.356 µM
2 | Cc1noc(C)c1-c1ccc2c(c1)OC(CC1CCC1)C(=O)N2 (stereo not given) | 8.1 °C | 0.2 µM | 
3 | Cc1noc(C)c1-c1ccc2c(c1)OC(Cc1ccc(Cl)cc1)C(=O)N2 (stereo not given) | 2.1 °C | > 20 µM | 
4 | CNC(=O)c1ccc(N2C(=S)N(c3ccc(C#N)c(C(F)(F)F)c3)C(=O)C2(C)C)cc1F [ENZALUTAMIDE] |  |  | IC50 (VCaP): > 30 µM; IC50 (LNCaP C4-2B): 20.8 µM
5 | Cc1noc(C)c1-c1ccc2c(c1)OC(c1ccccc1Cl)C(=O)N2 (stereo not given) | 5.1 °C | 0.49 µM | 
6 | CSCCC1Oc2cc(-c3c(C)noc3C)ccc2NC1=O (stereo not given) | 6.9 °C | 0.53 µM | 
7 | Cc1noc(C)c1-c1ccc2c(c1)OC(C(C)(C)C)C(=O)N2 (stereo not given) | 7.9 °C | 0.27 µM | 
8 | Cc1noc(C)c1-c1ccc2c(c1)O[C@H](Cc1ccccc1)C(=O)N2 | 3.2 °C | 6.07 µM | 
9 | CCCCC1Oc2cc(-c3c(C)noc3C)ccc2NC1=O (stereo not given) | 7.8 °C | 0.2 µM | IC50 (CWR22R): 4.52 µM; IC50 (LNCaP [4]): 0.82 µM; IC50 (VCaP): 1.14 µM; IC50 (LNCaP C4-2B): 0.59 µM
10 | Cc1noc(C)c1-c1ccc2c(c1)OC(CC1CC1)C(=O)N2 (stereo not given) | 8.7 °C | 0.4 µM | IC50 (CWR22R): 1.94 µM; IC50 (LNCaP [4]): 1.03 µM; IC50 (VCaP): 0.41 µM; IC50 (LNCaP C4-2B): 0.59 µM
11 | COC(=O)CN1C(=O)[C@@H](CC2CC2)Oc2cc(-c3c(C)noc3C)ccc21 | 8.9 °C | 0.36 µM | 
12 | Cc1noc(C)c1-c1ccc2c(c1)OC(c1cccc(Cl)c1)C(=O)N2 (stereo not given) | 4.8 °C | 0.51 µM | 
13 | Cc1noc(C)c1-c1ccc2c(c1)OC(Cc1ccccc1)C(=O)N2 (stereo not given) | 3 °C | > 20 µM | 
14 | Cc1noc(C)c1-c1ccc2c(c1)OC(c1cccc(C(F)(F)F)c1)C(=O)N2 (stereo not given) | 3.3 °C | 2.27 µM | 
15 | Cc1noc(C)c1-c1ccc2c(c1)OC(CC(C)C)C(=O)N2 (stereo not given) | 9.4 °C | 0.18 µM | IC50 (CWR22R): 6.5 µM; IC50 (LNCaP [4]): 0.57 µM; IC50 (VCaP): 0.38 µM; IC50 (LNCaP C4-2B): 0.54 µM
16 | Cc1noc(C)c1-c1ccc2c(c1)OC(c1ccc(Cl)cc1)C(=O)N2 (stereo not given) | 5.4 °C | 0.88 µM | 
17 | Cc1noc(C)c1-c1ccc2c(c1)O[C@@H](CC1CC1)C(=O)N2 | 3.9 °C | 3.54 µM | 
18 | Cc1noc(C)c1-c1ccc2c(c1)O[C@H](CC1CC1)C(=O)N2CC(=O)N(C)C | 6.9 °C | 3.64 µM | 
19 | Cc1noc(C)c1-c1ccc2c(c1)O[C@H](CC1CC1)C(=O)N2CC(=O)O | 6.9 °C | 2.12 µM | 
20 | Cc1noc(C)c1-c1ccc2c(c1)OC(c1cccc(F)c1)C(=O)N2 (stereo not given) | 7.5 °C | 0.62 µM | 
21 | Cc1noc(C)c1-c1ccc2c(c1)OC(CC1CCCCC1)C(=O)N2 (stereo not given) | 6.9 °C | 1.17 µM | 
22 | Cc1noc(C)c1-c1ccc2c(c1)OC(c1ccccc1C(F)(F)F)C(=O)N2 (stereo not given) | 5.4 °C | 1.14 µM | 
23 | CCCC1Oc2cc(-c3c(C)noc3C)ccc2NC1=O (stereo not given) | 8.1 °C | 0.29 µM | 
24 | Cc1noc(C)c1-c1ccc2c(c1)OC(C(C)C)C(=O)N2 (stereo not given) | 6.9 °C | 1.17 µM | 
25 | Cc1noc(C)c1-c1ccc2c(c1)OC(CC1CCCC1)C(=O)N2 (stereo not given) | 7.8 °C | 0.29 µM | 
26 | Cc1noc(C)c1-c1ccc2c(c1)O[C@H](CC1CC1)C(=O)N2CCN(C)C | 8.4 °C | 0.86 µM | 
27 | Cc1noc(C)c1-c1ccc2c(c1)OC(c1ccc(Cl)c(Cl)c1)C(=O)N2 (stereo not given) | 5.7 °C | 4.25 µM | 
28 | Cc1sc2c(c1C)C(c1ccc(Cl)cc1)=N[C@@H](CC(=O)Nc1ccc(O)cc1)c1nnc(C)n1-2 [BIRABRESIB] |  |  | IC50 (LNCaP [1]): 0.111 µM
29 | Cc1noc(C)c1-c1ccc2c(c1)O[C@H](CC1CC1)C(=O)N2C | 7.7 °C | 0.52 µM | 
30 | Cc1noc(C)c1-c1ccc2c(c1)OC(c1cc(Cl)cc(Cl)c1)C(=O)N2 (stereo not given) | 6.3 °C | 1.33 µM | 
